From ChEMBL document CHEMBL1152485, “Comparative chemometric modeling of cytochrome 3A4 inhibitory activity of structurally diverse compounds using stepwise MLR, FA-MLR, PLS, GFA, G/PLS and ANN techniques” (Eur J Med Chem, 2009)

These compounds were tested against Cytochrome P450 3A4 (Homo sapiens, UniProt P08684).
Cytochrome P450 3A4, sequence (P08684 whole entry): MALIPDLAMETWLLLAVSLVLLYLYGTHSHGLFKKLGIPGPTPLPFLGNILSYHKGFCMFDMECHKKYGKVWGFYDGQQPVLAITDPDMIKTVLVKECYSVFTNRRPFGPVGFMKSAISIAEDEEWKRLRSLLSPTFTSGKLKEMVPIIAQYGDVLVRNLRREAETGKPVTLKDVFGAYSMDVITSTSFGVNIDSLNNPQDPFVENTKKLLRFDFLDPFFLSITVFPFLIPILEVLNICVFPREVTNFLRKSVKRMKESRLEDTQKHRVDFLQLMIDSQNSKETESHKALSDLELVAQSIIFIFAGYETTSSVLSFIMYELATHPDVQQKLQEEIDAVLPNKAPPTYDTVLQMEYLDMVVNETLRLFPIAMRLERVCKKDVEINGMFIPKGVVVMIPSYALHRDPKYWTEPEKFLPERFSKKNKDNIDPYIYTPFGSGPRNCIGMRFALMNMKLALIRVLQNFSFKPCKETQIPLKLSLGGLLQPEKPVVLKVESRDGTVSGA

| SMILES | IC50 [µM] |
| --- | --- |
| CC(C)(C(=O)c1cccnc1)c1cccnc1 [METYRAPONE] | 4.93 |
| CCCC1COC(Cn2cncn2)(c2ccc(Cl)cc2Cl)O1 (stereo not drawn) [PROPICONAZOLE] | 1.04 |
| CC(C)(C)C(=O)C(Oc1ccc(Cl)cc1)n1cncn1 (stereo not drawn) [TRIADIMEFON] | 9.29 |
